Experimental data taken from patent US20220401751A1, “Thalamic Input to Orbitofrontal Cortex Drives Brain-Wide, Frequency-Dependent Inhibition Mediated By GABA and Zona Incerta” (priority 2019, published 2022).
Where a name gives a salt, the structure may show the parent alone.

Legend:
[1] = system: GABAA receptors; test: Single-unit recordings in contralateral VLO during 10 Hz thalamocortical stimulation before and after micro-infusion of BMI; format: in vivo, Sprague-Dawley rats
Protocol: It was next hypothesized that decreases in cortical activity reflect direct GABA-mediated inhibition. The dependence of this response on downstream GABA release was tested by comparing evoked changes in firing rate before and after micro-infusion of bicuculline methiodide (BMI). […] Single-unit recordings were performed in cVLO, where negative fMRI signals were observed during 10 Hz thalamocortical stimulation (FIG. 5A). To ensure that any changes associated with BMI infusion were due to its pharmacological effect, infusions with sterile saline were first performed. To inject both BMI and saline, a pair of cannulas was attached to the recording electrode directly above the electrical contacts (FIG. 5B).
(§1) In vivo electrophysiology was performed to directly measure the neuronal activity of various brain regions during thalamocortical stimulation. As with imaging, anesthesia was maintained with a mixture of 02 (35%), N20 (65%), and −1.5% isoflurane. Throughout the procedure, body temperature was maintained at 37° C. using a thermoresistive heating pad (FHC, Inc., ME, USA). After securing the animal within a stereotactic frame, a 16-channel microelectrode array (NeuroNexus Technologies, MI, USA; A1×16 standard model linear electrode array) was inserted at the desired recording site. For recordings at the site of stimulation and zona incerta, an optical fiber glued to the electrode tip was used to deliver light. Remote recordings were performed at the following coordinates, averaged across animals: contralateral VLO (+4.68 mm AP, −1.90 mm ML, −4.90 mm DV), ipsilateral motor cortex (+3.24 mm AP, +2.43 mm ML, −3.00 mm DV), ipsilateral reticular nucleus (−1.86 mm AP, +2.20 mm ML, −6.93 mm DV), contralateral reticular nucleus (−1.92 mm AP, −2.10 mm ML, −7.17 mm DV), and ipsilateral zona incerta (−4.00 mm AP, +3.10 mm ML, −7.13 mm DV). Light was delivered to the fiber-optic implant at VLO via a 473 nm laser source calibrated to 5 mW power delivery. In one animal, a higher power level was used (no more than −2×) to account for a fiber implanted in a relatively dorsal position in VLO. For the optrode positioned in zona incerta, a […] diameter optical fiber was used to deliver continuous light from a 589 nm laser source (LaserGlow Technologies) calibrated to 5 mW at the implanted fiber's tip. Recordings were performed for 20 s without stimulation, followed by repeated stimulation cycles (20 s on, 40 s off) at 10 or 40 Hz with a 30% duty cycle. To assess the role of zona incerta, 10 Hz stimulation trials were interleaved with 30 s periods of simultaneous eNpHR activation beginning 5 s prior to 10 Hz stimulation (FIG. 7B).
(§2) Pharmacological infusions were performed during in vivo electrophysiology (same procedure as described above) with bicuculline methiodide (BMI; 0.6 mg/ml; Sigma-Aldrich #14343), lidocaine hydrochloride (2%; Fresenius Kabi, IL, USA; #491507), or sterile saline as a control. Solutions were delivered at a rate of 250 nL/min via two polyethylene cannulas (0.011/0.024″ ID/OD; A-M Systems, WA, USA)—one for saline and one for the active pharmacological agent—glued to the tip of a recording electrode, directly above the topmost recording contact. Cannula tips were beveled to ensure that injected solutions were released in the direction of the electrode.
(§3) Infusions of saline and BMI (500 nL) were performed in the contralateral VLO while recording directly below the site of infusion (FIG. 5B). For each solution, twenty 10 Hz stimulation/recording trials were performed before infusion onset, and twenty more trials were performed immediately after infusion. Saline was delivered first, followed by BMI. To assess the role of zona incerta, saline and lidocaine (500-1000 nL) were delivered to the ipsilateral zona incerta while recording in the contralateral VLO. […]

[2] = system: zona incerta; test: Single-unit recordings in contralateral VLO during 10 Hz thalamocortical stimulation after lidocaine infusion in zona incerta; format: in vivo, Sprague-Dawley rats
Protocol: ZI activity was first inactivated via incertal infusions of the sodium channel blocker lidocaine hydrochloride (FIG. 6A and FIGS. 14A-14B). […] In contrast, only 72% of units were inhibited during 10 Hz stimulation after inactivation of zona incerta with lidocaine (FIG. 6B).
as §1, §2, §3

[3] = cVLO baseline (pre-stimulation) firing rate

C[N+]1(C)CCc2cc3c(cc2[C@H]1[C@@H]1OC(=O)c2c1ccc1c2OCO1)OCO3.[I-] [BMI, bicuculline methiodide]
stimulus-evoked change in firing rate of a representative cVLO unit ([1]; 10 Hz stimulation after BMI infusion, p=0.63): no longer causes a significant change in firing rate
effect on stimulus-evoked inhibition in cVLO ([1]; 10 Hz thalamocortical stimulation, after BMI infusion): completely eliminated the stimulus-evoked inhibition
time course of the reduction in stimulus-evoked inhibition ([1]; after BMI infusion, twenty 10 Hz trials): took immediate effect after BMI infusion and continued throughout the following twenty trials
units whose baseline firing rate decreased following BMI infusion [1, 3]: 18%
units whose baseline firing rate increased following BMI infusion [1, 3]: 27%
recorded units not modulated by stimulation after BMI infusion ([1]; cVLO units, 10 Hz thalamocortical stimulation, after 500 nL BMI (0.6 mg/ml) infusion in cVLO, 49 units, 2 animals, 20 trials per condition): 96%
recorded units exhibiting a significant increase in firing rate during stimulation after BMI infusion ([1]; cVLO units, 10 Hz thalamocortical stimulation, after BMI infusion): 4%
average baseline firing rate across all units after BMI infusion ([1]; cVLO, p=0.66): not significantly different

CCN(CC)CC(=O)Nc1c(C)cccc1C [lidocaine, lidocaine hydrochloride]
stimulus-evoked change in firing rate of a representative cVLO unit ([2]; 10 Hz stimulation after lidocaine infusion, p=0.31): no longer exhibits a significant change in firing rate
time course of the reduction in evoked inhibition ([2]; after lidocaine infusion in zona incerta, twenty 10 Hz trials): took immediate effect after lidocaine infusion and persisted throughout the following twenty trials
units inhibited during 10 Hz stimulation after inactivation of zona incerta ([2]; cVLO units, lidocaine (2%, 500-1000 nL) infused in ipsilateral zona incerta, N=62 units, 20 trials per condition): 72%
stimulus-evoked changes in firing rate versus baseline and post-saline values ([2]; cVLO, post-hoc tests, p=9.6×10^−10 and 3.0×10^−7): different than both baseline and post-saline values
effect on remote cortical inhibition driven by 10 Hz stimulation in a subset of recorded units ([2]; incertal infusion, representative cVLO unit): completely eliminated the remote cortical inhibition
